Assay results published in patent publication US5218000A, “Therapeutic polyamine-amides” (priority 1988, dated 1993).
Where two headings read alike, the source gives them in different places.

Experiments:
[1] = test system: invertebrate L-quisqualate sub-type L-glutamate receptor and its ion channel; assay: locust isolated retractor unguis nerve-muscle preparation, twitch amplitude on electrical stimulation; type: cell-based, Schistocerca gregaria; conditions: for IC50: locust retractor unguis muscle, electrically stimulated
Experimental: The compounds were assayed for biological activity on the isolated, retractor unguis nerve-muscle preparation of the locust Schistocerca gregaria (Usherwood, P.N.R and Machili, P. (1968) J. Exp. Biol., 49: 341.). Isolated muscle preparations were bathed continuously in standard locust saline in a bath of volume 250 μl. Twitch tension recordings of the muscle were made to electrical stimulation of its motor innervation supramaximal voltage, frequency 0.1 Hz).
The locust isolated retractor unguis nerve-muscle is a preparation with well characterised muscle receptors belonging to the quisqualate-sensitiveclass (Boden, P. et al., (1986) Brain Res., 385: 205.). This preparation has previously been employed to identify antogonists of excitatory amino acid receptors, (e.g. Bateman, A. et al., (1985) Brain Res., 339: 237 and Budd, T. et al., (1988) Brain Res., 448: 30.). Excitatory amino acid receptors are also believed to be of considerable importance in the mammal and for therapeutic applications.
The potency of this monoacylated spermine as an antagonist of the complex formed by the invertebrate L-quisqualate sub-type L-glutamate receptor and its ion channel was assayed using the electrically stimulated retractor unguis muscle of the locust (Schistocerca gregaria). Twitch amplitude was reduced ([…]) from control (100%) levels at the following concentrations: […]

quizqualate receptor = assay: rat cerebral cortex slice (wedge, grease-gap), AMPA-induced depolarisation response; type: cell-based, Wistar rats; conditions: rat brain slice
Text: (§1) Coronal slices of cerebral cortex were cut with a Vibratome from the brains of freshly killed Wistar rats. Wedges of tissue were cut from either side of the mid-line to include the cortex and corpus callosum. The wedges were mounted in a grease-gap apparatus such that the cortex protruded into one compartment and the corpus callosum into the other compartment of a two-compartment bath, (Harrison N. L. & Simmonds M. A. (1985). Br. J. Pharmacol 84: 381-391.). Each compartment could be separately perfused with Krebs bicarbonate medium pre-gassed with 95% 02 /5% CO2 at room temperature. The volume of each compartment was 1.8 ml and the perfusion rate was 2 ml/min. The compartment containing the cortical part of the wedge was also gassed directly so that drugs could be injected into the bath with the perfusion pump stopped. This variant on the published method was adopted to minimise the amount of drug required. The potential difference between the two compartments was recorded continously via Ag/AgCl electrodes. […]
(§2) The potency of this monoacylated spermine was tested as an antagonist of NMDA- and AMPA- induced response in a rat brain slice model. Electrophysiologically recorded depolarisation responses were reduced from control levels (% inhibition) at the following concentrations: […]

NMDA receptor = assay: rat cerebral cortex slice (wedge, grease-gap), NMDA-induced depolarisation response; type: cell-based, Wistar rats; conditions: rat brain slice, Mg2+ omitted
Text: as §1, §2

[2] = read-out: IC50 (reduction of twitch amplitude)
[3] = approximate, read-out: concentration at which an approximately 50% reduction of twitch amplitude was obtained

Q: Which inhibition of twitch ([1]; 1.5 × 10^-4 M) does the source give for `NCCCNCCCCNCCCNC(=O)Cc1ccccc1O` [Example 1, N-(2-Hydroxyphenylacetyl)-spermine] here?
A: 85%

Q: And the inhibition of twitch ([1]; 1.5 × 10^-5 M)?
A: 30%

Q: And the inhibition of twitch ([1]; 3 × 10^-4 M)?
A: 90%

Q: And the inhibition of twitch ([1]; 3 × 10^-5 M)?
A: 30%

Q: And the inhibition of twitch ([1]; 3 × 10^-6 M)?
A: 20%

Q: And the inhibition of twitch ([1]; 3 × 10^-7 M)?
A: 15%

Q: What about the inhibition of twitch ([1]; 3 × 10^-8 M) of the same compound?
A: 10%

Q: What about the IC50 [1, 2] of the same compound?
A: 62 µM

Q: Which inhibition of twitch ([1]; 3 × 10^-7 M) does the source give for `NCCCNCCCCNCCCNC(=O)Cc1cccc(O)c1` [Example 2, N-(3-Hydroxyphenylacetyl)-spermine] here?
A: 35%

Q: And the inhibition of twitch ([1]; 3 × 10^-8 M)?
A: 30%

Q: What does the source list for `NCCCNCCCCNCCCNC(=O)Cc1ccc(O)cc1` [Example 3, N-(4-Hydroxyphenylacetyl)-spermine]?
A: % inhibition of AMPA-induced depolarisation response (quizqualate receptor; 10^-5 M): 22%; % inhibition of AMPA-induced depolarisation response (quizqualate receptor; 10^-6 M): 0%; inhibition of twitch ([1]; 2.95 × 10^-5 M): 74%; inhibition of twitch ([1]; 4.43 × 10^-5 M): 91%; inhibition of twitch ([1]; 5.9 × 10^-5 M): 96%; inhibition of twitch ([1]; 5.9 × 10^-6 M): 25%; inhibition of twitch ([1]; 5.9 × 10^-7 M): 9%; IC50 [1, 2]: 8.7 µM; % inhibition of NMDA-induced depolarisation response (NMDA receptor; 10^-5 M): 35%; % inhibition of NMDA-induced depolarisation response (NMDA receptor; 10^-6 M): 29%

Q: With `NCCCNCCCCNCCCNC(=O)CCc1ccccc1O` [Example 4, N-(2-Hydroxyphenylpropanoyl)-spermine] as the compound, how does the IC50 [1, 3] read?
A: ~50 µM

Q: Which inhibition of twitch ([1]; 1.08 × 10^-6 M) does the source give for `NCCCNCCCCNCCCNC(=O)CCc1cccc(O)c1` [Example 5, N-(3-Hydroxyphenylpropanoyl)-spermine] here?
A: 15%

Q: What about the inhibition of twitch ([1]; 1.08 × 10^-7 M) of the same compound?
A: 10%

Q: What does the source list for `NCCCNCCCCNCCCNC(=O)C=Cc1ccc(O)cc1` [Example 6, N-(4-Hydroxycinnamoyl)-spermine]?
A: inhibition of twitch ([1]; 10^-5 M): 70%; inhibition of twitch ([1]; 10^-6 M): 56%; inhibition of twitch ([1]; 10^-7 M): 33%; inhibition of twitch ([1]; 10^-8 M): 24%; inhibition of twitch ([1]; 10^-9 M): 18%; inhibition of twitch ([1]; 10^-10 M): 4%; IC50 [1, 2]: 60 µM

Q: Which IC50 [1, 3] does the source give for `NCCCNCCCCNCCCNC(=O)Cc1ccc(O)cc1O` [Example 7, N-(2,4-Dihydroxyphenylacetyl)-spermine] here?
A: ~50 µM

Q: Which IC50 [1, 3] does the source give for `NCCCNCCCCNCCCNC(=O)Cc1ccc(O)c(O)c1` [Example 8, N-(3,4-Dihydroxyphenylacetyl)-spermine] here?
A: ~500 µM

Q: For `NCCCNCCCCNCCCNC(=O)Cc1cc(O)cc(O)c1` [Example 9, N-(3,5-Dihydroxyphenylacetyl)-spermine], which inhibition of twitch ([1]; 1 07 × 10^-6 M) is on record?
A: 25%

Q: What about the inhibition of twitch ([1]; 1.07 × 10^-5 M) of the same compound?
A: 45%

Q: `NCCCNCCCCNCCCNC(=O)c1ccccc1O` [Example 10] was tested. Which “reduction of twitch amplitude from control level” value ([1]; 1.09×10^-5 M, 10.9 µM) did it give?
A: approximately 25%

Q: For `NCCCNCCCCNCCCNC(=O)c1cccc(O)c1` [Example 11, N-(3-Hydroxybenzoyl)-spermine], which “reduction of twitch amplitude from control levels” value (“reduction … from control levels” for short) ([1]; 1.02×10^-5 M, 10.2 µM) is on record?
A: approximately 40%

Q: Which IC50 [1, 3] does the source give for `NCCCNCCCCNCCCNC(=O)c1ccc(O)cc1` [Example 12, N-(4-Hydroxybenzoyl)-spermine] here?
A: ~50 µM

Q: How did the “reduction … from control levels” value ([1]; 9.2×10^-7 M, 0.92 µM) turn out when `NCCCNCCCCNCCCNC(=O)C=Cc1cccc(O)c1` [Example 13, N-(3-Hydroxycinnamoyl)-spermine] was run?
A: approximately 25%

Q: With `NCCCNCCCCNCCCNC(=O)Cc1ccc(O)c(F)c1` [Example 14, N-(3-Fluoro-4-hydroxyphenylacetyl)-spermine] as the compound, how does the IC50 [1, 3] read?
A: ~500 µM

Q: For `COc1ccccc1CC(=O)NCCCNCCCCNCCCN` [Example 15, N-(2-Methoxyphenylacetyl)-spermine], which IC50 [1, 3] is on record?
A: ~500 µM

Q: Which IC50 [1, 3] does the source give for `COc1ccc(CC(=O)NCCCNCCCCNCCCN)cc1` [Example 16, N-(4-Methoxyphenylacetyl)-spermine] here?
A: ~500 µM

Q: Which IC50 [1, 3] does the source give for `COc1ccccc1CC(=O)NCCCNCCCNCCCN` [Example 17, N-(2-Methoxyphenylacetyl)-N',N"-bis(3-aminopropyl)-1,3-propanediamine] here?
A: ~900 µM

Q: How did the IC50 [1, 3] turn out when `COc1ccc(CC(=O)NCCCNCCCNCCCN)cc1` [Example 18, N-(4-Methoxyphenylacetyl)-N',N"-bis(3-aminopropyl)-1,3-propanediamine] was run?
A: ~900 µM

Q: With `NCCCNCCCNCCCNC(=O)Cc1ccccc1O` [Example 19, N-(2-Hydroxyphenylacetyl)-N',N"-bis(3-aminopropyl)-1,3-propanediamine] as the compound, how does the IC50 [1, 3] read?
A: ~900 µM

Q: Which “reduction … from control levels” value ([1]; 1.04×10^-4 M, 104 µM) does the source give for `NCCCNCCCNCCCNC(=O)Cc1cccc(O)c1` [Example 20, N-(3-Hydroxyphenylacetyl)-N',N"-bis(3-aminopropyl)-1,3-propanediamine] here?
A: approximately 60%

Q: Which results are given for `NCCCNCCCNCCCNC(=O)Cc1ccc(O)cc1` [Example 21, N-(4-Hydroxyphenylacetyl)-N',N"-bis(3-aminopropyl)-1,3-propanediamine]?
A: reduction of twitch amplitude from control levels ([1]; 1×10^-4 M, 100 µM): approximately 30%; IC50 [1, 3]: ~900 µM
